Biological target: T1, Human rhinovirus (HRV) type 14 3C protease (Human rhinovirus 14, UniProt P03303)
T1 construct: Assay using active recombinant Human rhinovirus (HRV) type 14 3C protease
Experiment: HRV type 14 3C protease assay
Assay type: biochemical
Conditions: increasing dose
Excerpt: FIG. 7: Assay using active recombinant Human rhinovirus (HRV) type 14 3C protease Cysteine in absence (neg) or presence (increasing dose) of SVC_01. HRV is a protease with preference for non-aromatic residues at P1′. The optimum recognition site for Human rhinovirus (HRV) type 14 3C protease is LEVLFQ/GP, with a glycine at the P1′ position.
Below, the criteria for selection are detailed: • Protease with documented carboxypeptidase activity towards alpha tubulin. Carboxypeptidase A hydrolyzes peptide bonds of C-terminal residues with aromatic or aliphatic side-chains (FIG. 6). • Cysteine protease with preference for non-aromatic residues at P1′. The optimum recognition site for Human rhinovirus (HRV) type 14 3C protease is LEVLFQ/GP, with a glycine at the P1′ position (FIG. 7). • Cysteine protease with preference for aromatic residues at P1′ site. Alike VASH, cathepsin B prefers an aromatic residue at the P1′ position. This is considered to be our best control for specificity (FIG. 8)

T1 sequence (P03303 1538-1719): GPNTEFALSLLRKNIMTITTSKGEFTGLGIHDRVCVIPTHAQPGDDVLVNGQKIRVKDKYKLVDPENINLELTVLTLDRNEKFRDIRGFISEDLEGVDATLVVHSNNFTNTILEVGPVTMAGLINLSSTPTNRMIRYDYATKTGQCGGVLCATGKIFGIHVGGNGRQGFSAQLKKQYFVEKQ

inhibition of HRV type 14 3C protease: does not reduce activity
Compound: O=C(O)CCC[C@H](NC(=O)[C@H]1O[C@@H]1C(=O)C[C@@H](Cc1ccc(OCc2ccccc2)cc1)C(=O)O)C(=O)NCCc1ccccc1 [SVC_01]

Source: patent publication US20260199284A1, “SPECIFIC VASH COMPOUNDS (SVC) INHIBITORS FOR HEART DISEASES” (MT ACT, priority 2023, published 2026)
